According to patent publication US9499493B2, “2,4-pyrimidinediamine compounds and their uses” (Rigel Pharmaceuticals, Inc., priority 2002, dated 2016):
pIC50: −log10 of the molar value. Counter-ions that a name gives are not always drawn.

Experiments:
[1] = system: cultured human mast cells (CHMC); assay: CHMC low cell density IgE activation: tryptase assay; type: cell-based; settings: anti-IgE
How it was run: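 Read-out: tryptase released into supernatant, measured by substrate turnover over 30 min at RT. Low-density CHMC (1000-1500 cells/well, per donor degranulation activity) in MT buffer, 1 hr at 37° C, then anti-IgE challenge 30 min at 37° C.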

[2] = system: cultured human mast cells (CHMC); assay: CHMC low cell density ionomycin activation: tryptase assay; type: cell-based

Question: With `COc1c(C)cc(Nc2nc(Nc3cccc(OCCN4CCNCC4)c3)ncc2F)cc1C` [R945157, N4-(3,5-Dimethyl-4-methoxyphenyl)-5-fluoro-N2-[3-[2-(N-piperazino)ethoxy]phenyl]-2,4-pyrimidinediamine Dihydrochloride Salt] as the compound, how does the pIC50 [1] read?
Answer: The pIC50 was 5.83.

Question: What about the pIC50 [2] of the same compound?
Answer: Its pIC50 is < 5.00.

Question: With `CCOC(=O)c1cnc(Nc2cccc(OCC(=O)NC)c2)nc1Nc1ccc2c(c1)OCCO2` [R926800, 5-Ethoxycarbonyl-N4-(3,4-ethylenedioxyphenyl)-N2-[3-(N-methylamino)carbonylmethyleneoxyphenyl]-2,4-pyrimidinediamine] as the compound, how does the pIC50 [1] read?
Answer: The pIC50 was 5.34.

Question: And the pIC50 [2]?
Answer: Its pIC50 is < 5.00.

Question: With `CNC(=O)COc1cccc(Nc2ncc(F)c(Nc3cccc(OC(=O)N(C(=O)NC(C)C)C(C)C)c3)n2)c1` [R926916] as the compound, how does the pIC50 [1] read?
Answer: The pIC50 was 5.71.

Question: And the pIC50 [2]?
Answer: The pIC50 was < 5.00.

Question: What does the source list for `CNC(=O)COc1cccc(Nc2ncc(F)c(Nc3cnc4c(c3)OCC(=O)N4)n2)c1` [R945242, 5-Fluoro-N2-(3-methylaminocarbonylmethyleneoxyphenyl)-N4-[2H-pyrido[3,2-b]-1,4-oxazin-3(4H)-one-7-yl]-2,4-pyrimidinediamine]?
Answer: pIC50 [1]: 6.61; pIC50 [2]: < 5.00

Question: With `CN(C)CCCNC(=O)CNc1cccc(Nc2ncc(F)c(Nc3cccc(NCCO)c3)n2)c1` [R950237, N2-[3-(3-N,N-Dimethylaminopropyl)aminocarbonylmethyleneaminophenyl]-5-fluoro-N4-[3-(2-hydroxyethylamino)phenyl]-2,4-pyrimidinediamine] as the compound, how does the pIC50 [1] read?
Answer: The pIC50 was < 5.00.

Question: And the pIC50 [2]?
Answer: The pIC50 was < 5.00.

Question: How did the pIC50 [1] turn out when `OCCn1ncc2ccc(Nc3ncc(F)c(Nc4ccc5c(c4)OCCO5)n3)cc21` [R935248, N4-(3,4-Ethylenedioxyphenyl)-5-fluoro-N2-[1-(2-hydroxyethyl)indazoline-6-yl]-2,4-pyrimidinediamine] was run?
Answer: The pIC50 was 5.96.

Question: And the pIC50 [2]?
Answer: The pIC50 was < 5.00.

Question: What does the source list for `CNC(=O)CCn1ncc2ccc(Nc3nc(Nc4ccc5c(c4)OCCO5)ncc3F)cc21` [R935288, N2-(3,4-Ethylenedioxyphenyl)-5-fluoro-N4-[1-[2(N-methylaminocarbonyl)ethyl]-indazoline-6-yl]-2,4-pyrimidinediamine]?
Answer: pIC50 [1]: 5.80; pIC50 [2]: < 5.00

Question: What does the source list for `OB(O)c1cccc(Nc2ncc(F)c(Nc3cccc(B(O)O)c3)n2)c1` [R926836, N2,N4-Bis(3-boronylphenyl)-5-fluoro-2,4-pyrimidinediamine]?
Answer: pIC50 [1]: 5.00; pIC50 [2]: < 5.00

Question: What does the source list for `COC(=O)COc1ccc(Nc2ncc(F)c(Nc3ccc(OCC(N)=O)cc3)n2)cc1` [R945052, N4-(4-Aminocarbonylmethyleneoxyphenyl)-5-fluoro-N2-(4-methoxycarbonylmethyleneoxyphenyl)-2,4-pyrimidinediamine]?
Answer: pIC50 [1]: 6.37; pIC50 [2]: 5.61

Question: What does the source list for `CCOC(=O)CCn1ncc2ccc(Nc3nc(Nc4ccc5oc(C(=O)OC)cc5c4)ncc3F)cc21` [R935295, N4-[1-(2-Ethoxycarbonylethyl)indazoline-6-yl]-5-fluoro-N2-(2-methoxycarbonylbenzofur-5-yl)-2,4-pyrimidinediamine]?
Answer: pIC50 [1]: 5.71; pIC50 [2]: < 5.00

Question: Which results are given for `Cc1nc(COc2cccc(Nc3ncc(F)c(Nc4ccc5oc(C(=O)O)cc5c4)n3)c2)no1` [R945134, N4-(2-Carboxybenzofuran-5-yl)-5-fluoro-N2-[3-(5-methyl-1,2,4-oxadiazol-3-yl)methyleneoxyphenyl]-2,4-pyrimidinediamine]?
Answer: pIC50 [1]: < 5.00; pIC50 [2]: < 5.00

Question: How did the pIC50 [1] turn out when `CNC(=O)COc1cccc(Nc2ncc(F)c(Nc3cc(C(=O)OC)cc(C(F)(F)F)c3)n2)c1` [R926862, 5-Fluoro-N2-[3-(N-methylamino)carbonylmethyleneoxyphenyl]-N4-(3-methoxycarbonyl-5-trifluoromethylphenyl)-2,4-pyrimidinediamine] was run?
Answer: Its pIC50 is 6.11.

Question: What about the pIC50 [2] of the same compound?
Answer: The pIC50 was < 5.00.

Question: Which results are given for `CCOC(=O)COc1cccc(Nc2ncc(F)c(Nc3ccc(O)c(C(=O)O)c3)n2)c1` [R950290, N4-(3-Carboxy-4-hydroxyphenyl)-5-fluoro-N2-[3-ethoxycarbonylmethyleneoxyphenyl]-2,4-pyrimidinediamine]?
Answer: pIC50 [1]: < 5.00; pIC50 [2]: < 5.00
